According to US10370333B2 (Sanford Burnham Prebys Medical Discovery Institute, priority 2012, dated 2019):

Target: TNAP (Homo sapiens (Human), UniProt P05186)
Assay: TNAP (PPi) inhibition assay, pyrophosphate as substrate
Format: biochemical
Procedure, shortened: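 Secreted epitope-tagged human TNAP from transiently transfected COS-1 cells, dialyzed to remove phosphate. Inhibitors tested kinetically at pH 7.4 with PPi as substrate; released phosphate quantified colorimetrically with Biomol Green reagent.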

Row | SMILES | IC50 [nM]
1 | COc1ccc(Br)cc1S(=O)(=O)Nc1ccc(NCCN(C)C)nc1 [Example VIII-13, 5-Bromo-N-(6-((2-(dimethylamino)ethyl)amino)pyridin-3-yl)-2-methoxybenzenesulfonamide] | > 1000
2 | COc1ccc(OC)c(S(=O)(=O)Nc2ccc(NCCN(C)C)nc2)c1 [Example VIII-14, N-(6-((2-(Dimethylamino)ethyl)amino)pyridin-3-yl)-2,5-dimethoxybenzenesulfonamide] | > 1000
3 | COc1ccc(Br)cc1S(=O)(=O)Nc1ccc(Nc2ccccc2)nc1 [Example VIII-15, 5-Bromo-2-methoxy-N-(6-(phenylamino)pyridin-3-yl)benzenesulfonamide] | > 1000
4 | COc1ccc(Br)cc1S(=O)(=O)Nc1ccc(N2CCCCC2)nc1 [Example VIII-17, 5-Bromo-2-methoxy-N-(3,4,5,6-tetrahydro-2H-[1,2′]bipyridinyl-5′-yl)-benzenesulfonamide] | > 1000
5 | COc1ccc(OC)c(S(=O)(=O)Nc2ccc(N3CCCCC3)nc2)c1 [Example VIII-18, 2,5-Dimethoxy-N-(3,4,5,6-tetrahydro-2H-[1,2′]bipyridinyl-5′-yl)-benzenesulfonamide] | > 1000
6 | COc1ccc(Br)cc1S(=O)(=O)Nc1ccc(N2CCN(C)CC2)nc1 [Example VIII-19, 5-Bromo-2-methoxy-N-[6-(4-methyl-piperazin-1-yl)-pyridin-3-yl]-benzenesulfonamide] | > 1000
7 | COc1ccc(OC)c(S(=O)(=O)Nc2ccc(N3CCN(C)CC3)nc2)c1 [Example VIII-20, 2,5-Dimethoxy-N-[6-(4-methyl-piperazin-1-yl)-pyridin-3-yl]-benzenesulfonamide] | > 1000
8 | O=S(=O)(Nc1cnc2ccccc2c1)c1cc(Br)ccc1OC(F)(F)F [Example X-1, 5-Bromo-N-quinolin-3-yl-2-trifluoromethoxy-benzenesulfonamide] | < 100
9 | O=S(=O)(Nc1cnc2ccccc2c1)c1cc(F)ccc1OC(F)(F)F [Example X-2, 5-Fluoro-N-quinolin-3-yl-2-trifluoromethoxy-benzenesulfonamide] | 100 to 1000
10 | O=S(=O)(Nc1cnc2ccccc2c1)c1cc(Cl)ccc1OC(F)(F)F [Example X-3, 5-Chloro-N-quinolin-3-yl-2-trifluoromethoxy-benzenesulfonamide] | < 100
11 | Cc1ccc(OC(F)(F)F)c(S(=O)(=O)Nc2cnc3ccccc3c2)c1 [Example X-4, 5-Methyl-N-quinolin-3-yl-2-trifluoromethoxy-benzenesulfonamide] | < 100
12 | Cc1ccc(OC(F)(F)F)cc1S(=O)(=O)Nc1cnc2ccccc2c1 [Example X-5, 2-methyl-N-quinolin-3-yl-5-trifluoromethoxy-benzenesulfonamide] | > 1000
13 | COc1ccc(OC(F)(F)F)cc1S(=O)(=O)Nc1cnc2ccccc2c1 [Example X-6, 2-Methoxy-N-(quinolin-3-yl)-5-(trifluoromethoxy)benzenesulfonamide] | < 100
14 | COc1ccc(-c2cncc(NS(=O)(=O)c3cc(Cl)ccc3OC(F)(F)F)c2)cc1 [Example XI-1, 5-chloro-N-[5-(4-methoxy-phenyl)-pyridin-3-yl]-2-trifluoromethoxy-benzenesulfonamide] | < 100
15 | COc1ccc(-c2cncc(NS(=O)(=O)c3cc(OC(F)(F)F)ccc3OC)c2)cc1 [Example XI-2, 2-Methoxy-N-(5-(4-methoxyphenyl)pyridin-3-yl)-5-(trifluoromethoxy)benzenesulfonamide] | < 100
16 | O=S(=O)(Nc1cncc(-c2ccc(OC(F)(F)F)cc2)c1)c1cc(Cl)ccc1OC(F)(F)F [Example XI-3, 5-Chloro-2-(trifluoromethoxy)-N-(5-(4-(trifluoromethoxy)phenyl)pyridin-3-yl)benzenesulfonamide] | 100 to 1000
17 | O=S(=O)(Nc1cncc(-c2ccc(OC(F)(F)F)cc2)c1)c1cc(Br)ccc1OC(F)(F)F [Example XI-4, 5-Bromo-2-(trifluoromethoxy)-N-(5-(4-(trifluoromethoxy)phenyl)pyridin-3-yl)benzenesulfonamide] | 100 to 1000
